# Measurements published in paper PMC5360270 (Journal of medicinal chemistry, 2016).
# Legend:
# Assay type in all cases: cell-based
# HIV-1B = assay: Antiviral p24 assay in MT-4 cells, multi-drug resistant variant HIV-1B; details: 50 TCID50 HIV-1B (multi-drug resistant)
# HIV-1C = assay: Antiviral p24 assay in MT-4 cells, multi-drug resistant variant HIV-1C; details: 50 TCID50 HIV-1C (multi-drug resistant)
# HIV-1DRV^RP20 = assay: Antiviral p24 assay in MT-4 cells, multi-drug resistant variant HIV-1DRVRP20; details: 50 TCID50 HIV-1DRV^RP20 (multi-drug resistant)
# HIV-1NL4-3 = assay: Antiviral p24 assay in MT-4 cells, wild-type HIV-1NL4-3; details: 50 TCID50 wild-type HIV-1NL4-3, p24 assay
# HIV-1LAI = assay: Antiviral assay in MT-2 cells exposed to HIV-1LAI, MTT assay; details: Human immunodeficiency virus 1, MT2
SMILES,Mean IC50 ± SD (HIV-1B),Mean IC50 ± SD (HIV-1C),Mean IC50 ± SD (HIV-1DRV^RP20),Mean IC50 ± SD (HIV-1NL4-3),IC50 (HIV-1LAI)
"COc1ccc(S(=O)(=O)N(CC(C)C)C[C@@H](O)[C@H](CC23CC4CC(CC(C4)C2)C3)NC(=O)O[C@H]2CCOC2)cc1 [15a, (S)-Tetrahydrofuran-3-yl ((2S,3R)-1-((1s,3R)-adamantan-1-yl)-3-hydroxy-4-((N-isobutyl-4-methoxyphenyl)sulfonamido)butan-2-yl)carbamate]",did not exhibit appreciable antiviral activity,did not exhibit appreciable antiviral activity,did not exhibit appreciable antiviral activity,–,–
"COc1ccc(S(=O)(=O)N(CC(C)C)C[C@@H](O)[C@H](CC23CC4CC(CC(C4)C2)C3)NC(=O)O[C@H]2CO[C@H]3OCC[C@H]32)cc1 [15d, (3R,3aS,6aR)-Hexahydrofuro[2,3-b]furan-3-yl ((2S,3R)-1-((1s,3R)-adamantan-1-yl)-3-hydroxy-4-((N-isobutyl-4-methoxyphenyl)sulfonamido)butan-2-yl)carbamate]",did not show any appreciable antiviral activity,–,did not show any appreciable antiviral activity,low nanomolar,–
"CC(C)CN(C[C@@H](O)[C@H](Cc1ccccc1)NC(=O)O[C@H]1CO[C@H]2OCC[C@H]21)S(=O)(=O)c1ccc(N)cc1 [Darunavir, darunavir]",–,–,–,–,3 nM
